From ChEMBL document CHEMBL1126925, “Nonprostanoid prostacyclin mimetics. 4. Derivatives of 2-[3-[2-(4,5-diphenyl-2-oxazolyl)ethyl]phenoxy]acetic acid substituted alpha to the oxazole ring” (J Med Chem, 1993) come the findings set out here.

One may read the IC50 as the concentration at which inhibition is half-maximal. A high value points to lower potency.

Where only a bound is given, the exact number is not on record here.

The species entered for the assay is Homo sapiens. The assay is described as follows: In vitro inhibition of ADP-induced aggregation of human platelets. Format: functional.
`O=C(O)COc1cccc(/C=C/c2nc(-c3ccccc3)c(-c3ccccc3)o2)c1` returned an IC50 of 13 µM. In other words, the double-digit micromolar range.

In the case of `O=C(O)COc1cccc(CC(c2ccsc2)c2nc(-c3ccccc3)c(-c3ccccc3)o2)c1` (stereo unspecified), it took 20.7 µM to reach half-maximal inhibition (IC50).

With `N#C/C(=C\c1cccc(OCC(=O)O)c1)c1nc(-c2ccccc2)c(-c2ccccc2)o1`, the IC50 came to 0.25 µM.

`NC(=O)C(Cc1cccc(OCC(=O)O)c1)c1nc(-c2ccccc2)c(-c2ccccc2)o1` (stereo unspecified) registered an IC50 of 3.75 µM. This IC50 lies about 15-fold higher than the previous one.

For `CC(C)(C)C(Cc1cccc(OCC(=O)O)c1)c1nc(-c2ccccc2)c(-c2ccccc2)o1` (stereo unspecified), half-maximal inhibition (IC50) was put at 3.66 µM.

In the case of `CC(C)OC(=O)C(Cc1cccc(OCC(=O)O)c1)c1nc(-c2ccccc2)c(-c2ccccc2)o1` (stereo unspecified), the IC50 stood at 1.22 µM.

In the case of `CSC(Cc1cccc(OCC(=O)O)c1)c1nc(-c2ccccc2)c(-c2ccccc2)o1` (stereo unspecified), 1.3 µM corresponded to half-maximal inhibition (IC50).

With `O=C(O)COc1cccc(CC(c2ccccc2)c2nc(-c3ccccc3)c(-c3ccccc3)o2)c1` (stereo unspecified), half-maximal inhibition (IC50) was put at 23.2 µM.

`O=C(O)COc1cccc(CC(c2nc(-c3ccccc3)c(-c3ccccc3)o2)c2cccs2)c1` (stereo unspecified): the IC50 was found to be 33.2 µM.

`CC(C)C(Cc1cccc(OCC(=O)O)c1)c1nc(-c2ccccc2)c(-c2ccccc2)o1` (stereo unspecified) registered an IC50 of 0.97 µM. This IC50 lies about 34-fold lower than the previous one.

Take `COC(=O)C(Cc1cccc(OCC(=O)O)c1)c1nc(-c2ccccc2)c(-c2ccccc2)o1` (stereo unspecified): inhibition was half-maximal at 0.08 µM (IC50).

In turn, `O=C(O)COc1cccc(CC(C(=O)O)c2nc(-c3ccccc3)c(-c3ccccc3)o2)c1` (stereo unspecified) yielded an IC50 of 14 µM.

`CS(=O)(=O)C(Cc1cccc(OCC(=O)O)c1)c1nc(-c2ccccc2)c(-c2ccccc2)o1` (stereo unspecified) displayed a 50% inhibitory concentration (IC50) of 7.96 µM.

`O=C(O)COc1cccc(CC(CCO)c2nc(-c3ccccc3)c(-c3ccccc3)o2)c1` (stereo unspecified) came in with an IC50 of 2.92 µM.

As for `C=CCC(Cc1cccc(OCC(=O)O)c1)c1nc(-c2ccccc2)c(-c2ccccc2)o1` (stereo unspecified), the IC50 stood at 0.57 µM. Compared with the last molecule, the IC50 is about 5.1-fold lower.

`CNC(=O)/C(=C\c1cccc(OCC(=O)O)c1)c1nc(-c2ccccc2)c(-c2ccccc2)o1` came in with an IC50 of 15 µM.

`CCOC(=O)/C(=C\c1cccc(OCC(=O)OC(C)(C)C)c1)c1nc(-c2ccccc2)c(-c2ccccc2)o1` displayed an IC50 of over 60 µM.

As to `CCOC(=O)/C(=C\c1cccc(OCC(=O)O)c1OC)c1nc(-c2ccccc2)c(-c2ccccc2)o1`, inhibition was half-maximal at 0.13 µM (IC50).

In turn, `CCOC(=O)C(Cc1cccc(OCC(=O)O)c1OC)c1nc(-c2ccccc2)c(-c2ccccc2)o1` (stereo unspecified) gave an IC50 of 1.18 µM. This IC50 lies about 9.1-fold higher than the previous one.

For `CCOC(=O)/C(=C\c1cccc(OCC(=O)O)c1)c1nc(-c2ccccc2)c(-c2ccccc2)o1`, inhibition was half-maximal at 0.36 µM (IC50).

Take `O=C(O)COc1cccc(CC(CCCCO)c2nc(-c3ccccc3)c(-c3ccccc3)o2)c1` (stereo unspecified): the IC50 was found to be 4.68 µM.

In turn, `CN(C)C(=O)C(=Cc1cccc(OCC(=O)O)c1)c1nc(-c2ccccc2)c(-c2ccccc2)o1` came in with an IC50 of 12.2 µM. This IC50 lies about 2.6-fold higher than the previous one.

On to `CCOC(=O)C(Cc1cccc(OCC(=O)O)c1)c1nc(-c2ccccc2)c(-c2ccccc2)o1` (stereo unspecified), for which the IC50 came to 0.12 µM. This IC50 lies about 100-fold lower than the previous one.

Regarding `O=C(O)COc1cccc(/C=C\c2nc(-c3ccccc3)c(-c3ccccc3)o2)c1`, it took 0.18 µM to reach half-maximal inhibition (IC50).

Consider `CN(C)C(=O)C(Cc1cccc(OCC(=O)O)c1)c1nc(-c2ccccc2)c(-c2ccccc2)o1` (stereo unspecified), for which the IC50 worked out at 3.56 µM. This IC50 is about 20-fold higher than that of the molecule before.

In turn, `C=CCC(Cc1cccc(OCC(=O)O)c1)(C(=O)OCC)c1nc(-c2ccccc2)c(-c2ccccc2)o1` (stereo unspecified) displayed an IC50 of 7.68 µM.

In turn, `CCOC(=O)C(=Cc1cccc(OCC(=O)OC)c1)c1nc(-c2ccccc2)c(-c2ccccc2)o1` [listing 1 of 2 here] displayed an IC50 of 19.7 µM. Against the preceding molecule, the IC50 is about 2.6-fold higher.

As for `N#CC(Cc1cccc(OCC(=O)O)c1)c1nc(-c2ccccc2)c(-c2ccccc2)o1` (stereo unspecified), the IC50 worked out at 0.44 µM. This IC50 lies about 45-fold lower than the previous one.

Consider `CNC(=O)C(Cc1cccc(OCC(=O)O)c1)c1nc(-c2ccccc2)c(-c2ccccc2)o1` (stereo unspecified), for which the concentration for half-maximal inhibition (IC50) amounted to 0.69 µM. This IC50 is about 1.6-fold higher than that of the molecule before.

`C[S+]([O-])C(Cc1cccc(OCC(=O)O)c1)c1nc(-c2ccccc2)c(-c2ccccc2)o1` (stereo unspecified): the half-inhibitory concentration (IC50) was 7.08 µM. This IC50 is about 10-fold higher than that of the molecule before.

Consider `O=C(O)COc1cccc(CC(CO)c2nc(-c3ccccc3)c(-c3ccccc3)o2)c1` (stereo unspecified), for which the IC50 was found to be 9.31 µM.

Take `O=C(O)COc1cccc(/C=C(\C(=O)O)c2nc(-c3ccccc3)c(-c3ccccc3)o2)c1`: half-maximal inhibition (IC50) required 20.3 µM.

In turn, `O=C(O)COc1cccc(CC(CCCO)c2nc(-c3ccccc3)c(-c3ccccc3)o2)c1` (stereo unspecified) yielded an IC50 of 1.7 µM.

In turn, `CCOC(=O)C(=Cc1cccc(OCC(=O)OC)c1)c1nc(-c2ccccc2)c(-c2ccccc2)o1` [listing 2 of 2 here] yielded an IC50 of 2 µM. This IC50 and that of the molecule before are within 1.5-fold of each other.

Consider `CCOP(=O)(OCC)C(Cc1cccc(OCC(=O)O)c1)c1nc(-c2ccccc2)c(-c2ccccc2)o1` (stereo unspecified), for which the IC50 is 0.9 µM.

`CC#CCC(C)[C@H](O)/C=C/[C@@H]1[C@H]2C/C(=C/CCCC(=O)O)C[C@H]2C[C@H]1O` (stereo partly specified) [ILOPROST]: the 50% inhibitory concentration (IC50) came out at 0.002 µM.
